# How the values were obtained:
# Conditions in all cases: treatment: drug + dasatinib (fixed dose, not stated); 5 days
# 769-P [1] = test: GI50 of drug in presence of dasatinib; higher = less potent
# Method: (§1)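 Primary HTS combination arm: 8 RCC cell lines treated with 8 doses (up to 10 uM) of each library drug plus a fixed dose of dasatinib (dose not stated) for 5 days; viability read by CellTiter-Glo and normalised to DMSO. GI50 was fitted with XLfit, AUC is the area under the dose-response curve, and minimum viability is the lowest fraction of DMSO viability across doses.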
# 786-O [2] = test: as above
# Method: as §1
# A498 [3] = test: as above
# Method: as §1
# ACHN [4] = test: as above
# Method: as §1
# CAKI-1 [5] = test: as above
# Method: as §1
# SN12C [6] = test: as above
# Method: as §1
# TK-10 [7] = test: as above
# Method: as §1
# UO-31 [8] = test: as above
# Method: as §1
# 769-P [9] = test: minimum viability across doses, drug + dasatinib, relative to DMSO (fraction); higher = less growth inhibition
# Method: as §1
# 786-O [10] = test: as above
# Method: as §1
# A498 [11] = test: as above
# Method: as §1
# ACHN [12] = test: as above
# Method: as §1
# CAKI-1 [13] = test: as above
# Method: as §1
# SN12C [14] = test: as above
# Method: as §1
# TK-10 [15] = test: as above
# Method: as §1
# UO-31 [16] = test: as above
# Method: as §1
# 769-P [17] = test: AUC of dose-response viability curve, drug + dasatinib, normalised to DMSO (arbitrary (AUC of normalised viability)); higher = less growth inhibition
# Method: as §1
# 786-O [18] = test: as above
# Method: as §1
# A498 [19] = test: as above
# Method: as §1
# ACHN [20] = test: as above
# Method: as §1
# CAKI-1 [21] = test: as above
# Method: as §1
# SN12C [22] = test: as above
# Method: as §1
# TK-10 [23] = test: as above
# Method: as §1
# UO-31 [24] = test: as above
# Method: as §1
Compound,GI50 of drug (769-P [1]) [µM],GI50 of drug (786-O [2]) [µM],GI50 of drug (A498 [3]) [µM],GI50 of drug (ACHN [4]) [µM],GI50 of drug (CAKI-1 [5]) [µM],GI50 of drug (SN12C [6]) [µM],GI50 of drug (TK-10 [7]) [µM],GI50 of drug (UO-31 [8]) [µM],minimum viability across doses (769-P [9]),minimum viability across doses (786-O [10]),minimum viability across doses (A498 [11]),minimum viability across doses (ACHN [12]),minimum viability across doses (CAKI-1 [13]),minimum viability across doses (SN12C [14]),minimum viability across doses (TK-10 [15]),minimum viability across doses (UO-31 [16]),AUC of dose-response viability curve (769-P [17]),AUC of dose-response viability curve (786-O [18]),AUC of dose-response viability curve (A498 [19]),AUC of dose-response viability curve (ACHN [20]),AUC of dose-response viability curve (CAKI-1 [21]),AUC of dose-response viability curve (SN12C [22]),AUC of dose-response viability curve (TK-10 [23]),AUC of dose-response viability curve (UO-31 [24])
O=C1NCCc2[nH]c(-c3ccncc3)cc21 + Cc1nc(Nc2ncc(C(=O)Nc3c(C)cccc3Cl)s2)cc(N2CCN(CCO)CC2)n1 [dasatinib],8.35,0.196,3.11,0.578,0.718,4.17,2.04,2.31,0.463,0.00389,0.0141,0.0122,0.0883,0.0225,0.185,0.0107,2.35,1.73,3.35,1.72,1.98,2.23,2.27,3.26
Cc1[nH]c(/C=C2\C(=O)Nc3ccc(S(=O)(=O)Cc4c(Cl)cccc4Cl)cc32)c(C)c1C(=O)N1CCC[C@@H]1CN1CCCC1 + Cc1nc(Nc2ncc(C(=O)Nc3c(C)cccc3Cl)s2)cc(N2CCN(CCO)CC2)n1 [dasatinib],2.3,3.3,2.1,1.06,2.16,4.24,4.11,3.1,0.00439,0.0107,0.0111,0.00119,0.00431,0.00449,0.00273,0.0078,2.14,2.38,2.71,1.93,2.04,2.19,2.73,2.84
N#CC[C@H](C1CCCC1)n1cc(-c2ncnc3[nH]ccc23)cn1 + Cc1nc(Nc2ncc(C(=O)Nc3c(C)cccc3Cl)s2)cc(N2CCN(CCO)CC2)n1 [dasatinib],> 10,> 10,> 10,> 10,4.27,> 10,> 10,> 10,0.557,0.536,0.911,0.504,0.331,0.689,0.686,0.486,2.39,2.44,3.44,1.97,2.21,2.5,2.61,3.91
CN(C)C1CCN(C(=O)c2ccc(NC(=O)Nc3ccc(-c4nc(N5CCOCC5)nc(N5CCOCC5)n4)cc3)cc2)CC1 + Cc1nc(Nc2ncc(C(=O)Nc3c(C)cccc3Cl)s2)cc(N2CCN(CCO)CC2)n1 [dasatinib],2.87,0.0498,0.0563,0.165,0.302,0.0192,0.306,1.68,0.147,0.00554,0.0743,0.125,0.0335,0.107,0.112,0.117,2.27,1.23,1.37,1.62,1.74,1.04,1.91,3.11
COc1ccc(-c2cc3c(C)nc(N)nc3n([C@H]3CC[C@H](OCCO)CC3)c2=O)cn1 + Cc1nc(Nc2ncc(C(=O)Nc3c(C)cccc3Cl)s2)cc(N2CCN(CCO)CC2)n1 [dasatinib],0.0946,0.0402,0.491,0.0154,0.0417,0.0794,0.0621,0.129,0.0148,0.0021,0.161,0.0415,0.00992,0.0663,0.0233,0.00781,1.37,1.15,2.3,1,1.12,1.37,1.35,1.67
CS(=O)c1ccc(-c2nc(-c3ccc(F)cc3)c(-c3ccncc3)[nH]2)cc1 (configuration not stated) + Cc1nc(Nc2ncc(C(=O)Nc3c(C)cccc3Cl)s2)cc(N2CCN(CCO)CC2)n1 [dasatinib],> 10,> 10,> 10,0.0157,> 10,> 10,> 10,> 10,0.593,0.746,0.893,0.434,0.516,0.716,0.655,0.962,2.31,2.73,3.76,1.82,2.3,2.65,2.45,3.73
CC(C)CC(=O)Nc1n[nH]c2c1CN(C(=O)C1CCN(C)CC1)C2(C)C + Cc1nc(Nc2ncc(C(=O)Nc3c(C)cccc3Cl)s2)cc(N2CCN(CCO)CC2)n1 [dasatinib],3.22,0.0858,1.29,0.0189,0.842,0.248,2.84,1.96,0.288,0.0032,0.00865,0.0258,0.0614,0.00656,0.184,0.0113,2.32,1.21,2.59,1.11,1.99,1.7,2.43,3.13
OCc1ccc(-c2ccc(-c3ccc(CO)s3)o2)s1 + Cc1nc(Nc2ncc(C(=O)Nc3c(C)cccc3Cl)s2)cc(N2CCN(CCO)CC2)n1 [dasatinib],0.00916,0.018,1.7,0.0696,0.00449,0.219,0.015,0.917,0.0624,0.0022,0.292,0.0471,0.00172,0.0563,0.0365,0.0841,0.925,1.04,2.69,1.2,0.396,1.8,0.849,3.23

# Source: the supplement of paper PMC8149375
